Key:
NLRP3 inflammasome [1] = target: T1, NLRP3 inflammasome (Homo sapiens, UniProt Q96P20); experiment: NLRP3 inflammasome activation assay in PBMCs, IL-1β release (ELISA / HTRF); format: cell-based; design: were freshly isolated from human peripheral blood from healthy donors; StemCells Technologies; host or cells: primary human PBMCs, LPS-primed, nigericin-stimulated; conditions: LPS primed
Method: Some of the following assays were used to determine the inhibitory activity of the compounds on the NLRP3 inflammasome using a common inflammasome activation stimuli—nigericin.
Human peripheral blood mononuclear cells (PBMCs), consisting of lymphocytes (T, B and NK cells), monocytes and dendritic cells, were freshly isolated from human peripheral blood from healthy donors. Cells were obtained through an IRB approved donor program by iXCells Biotechnologies where all the donors were tested for bacterial and viral infections. Cells were purified from peripheral blood using ficoll gradient centrifugation.
Fresh or cryopreserved PMBCs were seeded in V-bottom 96-well plate at 0.5-1×10^5 cells per well and incubated overnight at 37° C. with 5% CO2 in RPMI 1640 medium with GlutaMAX supplement, 4.5 g/L D-glucose, 10% Fetal Bovine Serum (FBS), […] Sodium Pyruvate, 1% Penicillin/Streptomycin, 10 mM HEPES and 0.05 mM of β-mercaptoethanol. Freshly isolated or cryopreserved KCs cells were seeded in flat-bottom 96-well plates at 0.6-1.5×10^5 cells/well and incubated overnight at 37° C. 5% CO2 in RPMI 1640 Medium with GlutaMAX supplement, FBS, 1% Penicillin/Streptomycin and 10 mM HEPES. The following day, the cells were primed with 100 ng/mL of lipopolysaccharides (LPS; Sigma Aldrich) in FBS-free RPMI 1640 for 3 h. After the priming step, the media was removed and PBMCs were pre-incubated with serial concentrations of test compounds (0.00017-10 uM) or vehicle (DMSO) for 30 min in FBS-free media prior to addition of the NLRP3 activator. Cells were then stimulated with 10 uM Nigericin (Sigma Aldrich; InvivoGen) for 1.5 h. Plates were centrifuged at 1,500 rpm for 3 minutes to pellet cells and supernatant was transferred into new plates for subsequent experiments.
For ELISA assays cells were seeded into 96-well plates. Post study, supernatants were removed and the levels of mature IL-1β, IL18 and TNFα (Quantikine ELISA, R&D systems) were measured in cell conditioned media by ELISA according to manufacturer's instructions.
Human frozen PBMCs were purchased from StemCells Technologies. Cells were rapidly thawed in 37° C. water bath and resuspended in fresh assay media consisting of RPMI 1640 Medium containing 1% sodium pyruvate, 10 mM HEPES, 2.5 g/L glucose and 55 μM 2-Mercaptoethanol. Cell density was adjusted to 8.1×10^5 cells/mL. Cells were primed by adding lipopolysaccharide (Invivogen Ultrapure lipopolysaccharide from E. coli, tlrl-3pelps) at a final concentration of 100 ng/mL in cell suspension. 37 μL of cell suspension with LPS was seeded per well of a 384 well plate and incubated for 3 hours at 37° C. and 5% CO2. After priming, PBMCs were preincubated with serially diluted test compounds with starting concentration of 40 μM followed by 2-fold dilution for a 20-point curve or vehicle (DMSO) for 30 min in assay media at 37° C. and 5% CO2. Cells were then stimulated with 10 μM nigericin (Invivogen, tlrl-nig-5) for 90 min at 37° C. and 5% CO2 to activate NLRP3 dependent inflammasome pathway and IL-1β release in cell culture supernatant. Cells were centrifuged at 1200 RPM for 1 min and 40 μL of supernatant was transferred into fresh plates and stored at −80° C. until IL-1β analysis.
16 μL of supernatant was added to white 384 well HTRF plates, followed by addition of 4 μL of HTRF cocktail in each well. Plates were quickly centrifuged, sealed and incubated overnight at room temperature. Next day, HTRF signal was read on a Pherastar and ratio of 665/620 was calculated based on manufacturer's protocol to obtain concentration of IL-1β in cell culture supernatant.

NLRP3 inflammasome [2] = target: T1, NLRP3 inflammasome; experiment: THP-1 ASC-GFP speck assay; format: cell-based; design: host or cells: THP-1 ASC-GFP cells, PMA-differentiated, LPS-primed, nigericin-stimulated; conditions: THP-1 ASC-GFP cells, PMA differentiated, LPS primed, 10 μM nigericin; read-out: THP1 ASC Speck IC50
Method: THP-1 ASC-GFP cell line was purchased from Invivogen, San Diego, for inflammasome activation assay. THP-1 ASC-GFP cells stably express a 37.6 kDa ASC::GFP fusion protein that enables monitoring of spec formation by microscopy after activation of NLRP3 dependent inflammasome pathway. Cells were maintained at a density of 600,000 cells/mL in growth media consisting of RPMI 1640, 2 mM L-glutamine, 25 mM HEPES and 10% heat inactivated fetal bovine serum at 37° C. and 5% CO2. Cells were passaged every 3-4 days and used for assays for up to 20 passages.
THP-1 ASC-GFP cells were collected by centrifuging cells at 800 RPM for 5 minutes. Cell culture supernatant was removed and cells were re-suspended in fresh media at density of 1×10^6 cells/mL in assay media consisting of RPMI 1640, 2 mM L-glutamine, 25 mM HEPES and 10% heat inactivated fetal bovine serum. Phorbol 12-myristate 13-acetate (PMA) (Invivogen, tlrl-pma) was added to the cell suspension at a final concentration of 500 ng/ml and mixed thoroughly. 40,000 cells were added per well of a 384 well plate and differentiated into macrophages overnight at 37° C. and 5% CO2. Cells were primed with 1 μg/mL of lipopolysaccharide (Invivogen Ultrapure lipopolysaccharide from E. coli, tlrl-3pelps) in assay media for 3 hours at 37° C. and 5% CO2. After priming, media was removed and THP-1 ASC-GFP cells were preincubated with serially diluted test compounds with starting concentration of 40 μM followed by 2-fold dilution for a 20-point curve or vehicle (DMSO) for 30 min in assay media at 37° C. and 5% CO2. Cells were then stimulated with 10 μM nigericin (Invivogen, tlrl-nig-5) for 90 min at 37° C. and 5% CO2 to activate NLRP3 dependent inflammasome pathway and spec formation. After stimulation, cells were fixed with 4.8% paraformaldehyde (Electron Microscopy Sciences #15710-S) and incubated at room temperature for 15 min. Cells were then washed 3-times with 100 μL of phosphate buffered saline and permeabilized in the presence of premeablization/block buffer for 20 min at room temperature. Cells were then washed 3-times with 100 μL phosphate buffered saline and incubated for 1 hr at room temperature in the presence of hoechst. After staining with Hoechst, cells were washed 3-times with 100 μL phosphate buffered saline and imaged for ASC spec formation.
THP-1 ASC-GFP cells were imaged in 488 and Hoechst channels. Hoechst channel was used for cell count and 488 channel was used to identify number of GFP ASC specks in imaged fields. Percentage of cells with a spec was calculated by dividing the number of GFP positive spots by total number of cells.

[3] = 10 μM nigericin, read-out: PBMC IL-1β IC50

T1 sequence (Q96P20 whole entry): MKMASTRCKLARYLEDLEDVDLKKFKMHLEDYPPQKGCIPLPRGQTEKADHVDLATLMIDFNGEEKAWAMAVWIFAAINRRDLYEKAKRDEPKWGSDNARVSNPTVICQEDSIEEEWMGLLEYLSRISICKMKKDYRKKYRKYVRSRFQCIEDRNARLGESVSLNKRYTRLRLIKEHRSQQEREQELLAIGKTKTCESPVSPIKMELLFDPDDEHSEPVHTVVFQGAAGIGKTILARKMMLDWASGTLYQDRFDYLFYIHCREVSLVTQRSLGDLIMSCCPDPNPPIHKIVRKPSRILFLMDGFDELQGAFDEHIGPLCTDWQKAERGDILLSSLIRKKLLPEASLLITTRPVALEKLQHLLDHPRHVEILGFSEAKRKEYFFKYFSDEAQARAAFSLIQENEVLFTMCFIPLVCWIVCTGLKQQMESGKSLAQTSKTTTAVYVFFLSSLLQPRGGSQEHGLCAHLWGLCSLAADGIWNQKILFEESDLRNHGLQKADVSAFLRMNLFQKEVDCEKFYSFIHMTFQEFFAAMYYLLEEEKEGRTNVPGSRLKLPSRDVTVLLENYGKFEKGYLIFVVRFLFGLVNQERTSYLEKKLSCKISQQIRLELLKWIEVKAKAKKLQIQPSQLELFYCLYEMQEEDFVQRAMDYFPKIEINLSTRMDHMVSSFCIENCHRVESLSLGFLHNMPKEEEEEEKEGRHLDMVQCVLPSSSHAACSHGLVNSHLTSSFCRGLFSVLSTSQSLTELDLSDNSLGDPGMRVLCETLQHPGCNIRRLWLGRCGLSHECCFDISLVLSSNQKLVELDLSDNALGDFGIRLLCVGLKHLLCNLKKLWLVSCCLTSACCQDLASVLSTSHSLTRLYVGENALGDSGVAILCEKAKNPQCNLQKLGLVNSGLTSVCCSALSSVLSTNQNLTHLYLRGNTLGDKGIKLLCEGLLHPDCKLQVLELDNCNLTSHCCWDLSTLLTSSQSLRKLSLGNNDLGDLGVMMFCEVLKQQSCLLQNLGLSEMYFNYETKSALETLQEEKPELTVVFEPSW

| Compound | IC50 (NLRP3 inflammasome [2]) | further results |
| --- | --- | --- |
| NS(=O)(=NC(=O)Nc1c2c(cc3c1CCC3)CCC2)c1cnn2c1CCCC2 (racemic) [Example 60, N′-((1,2,3,5,6,7-hexahydro-s-indacen-4-yl)carbamoyl)-4,5,6,7-tetrahydropyrazolo[1,5-a]pyridine-3-sulfonimidamide] |  | IC50 (NLRP3 inflammasome [1]; [3]): 3640 nM |
| COc1cc(C(C)C)c(NC(=O)N=S(N)(=O)c2cnn3c2OCC(N2CC(OC)C2)C3)c(C(C)C)n1 (single isomer, unassigned) [Example 48] |  | IC50 (NLRP3 inflammasome [1]; [3]): > 10000 nM |
| CNCCO[C@@H]1COc2c(S(N)(=O)=NC(=O)Nc3c4c(cc5c3CCC5)CCC4)cnn2C1 (single isomer, unassigned) [Example 57] |  | IC50 (NLRP3 inflammasome [1]; [3]): 1670 nM |
| CC(=O)NS(=O)(=NC(=O)Nc1c2c(c(F)c3c1CCC3)CCC2)c1cnn2c1OCCC2 (single isomer, unassigned) [Example 95] |  | IC50 (NLRP3 inflammasome [1]; [3]): 2230 nM |
| CC1(C)Cn2ncc(S(N)(=O)=NC(=O)Nc3c4c(cc5c3CCC5)CCC4)c2O1 (single isomer, unassigned) [Example 139] | 4.3 nM |  |
| CC1(C)Cn2ncc(S(N)(=O)=NC(=O)Nc3c4c(cc5c3CCC5)CCC4)c2O1 (single isomer, unassigned) [Example 140] | 560 nM |  |
| NS(=O)(=NC(=O)Nc1c2c(cc3c1CC3)CCC2)c1cnn2c1OCCC2 (single isomer, unassigned) [Example 141] | 1600 nM |  |
| NS(=O)(=NC(=O)Nc1c2c(cc3c1CC3)CCC2)c1cnn2c1OCCC2 (single isomer, unassigned) [Example 142] | 84 nM |  |
| CC1CCc2cc3c(c(NC(=O)N=S(N)(=O)c4cnn5c4OCC5)c21)CCC3 (single isomer, unassigned) [Example 143] | 1200 nM |  |
| CC1CCc2cc3c(c(NC(=O)N=S(N)(=O)c4cnn5c4OCC5)c21)CCC3 (single isomer, unassigned) [Example 144] | 56 nM |  |
| CC1CCc2cc3c(c(NC(=O)N=S(N)(=O)c4cnn5c4OCC5)c21)CCC3 (single isomer, unassigned) [Example 145] | 3800 nM |  |
| CC1CCc2cc3c(c(NC(=O)N=S(N)(=O)c4cnn5c4OCC5)c21)CCC3 (single isomer, unassigned) [Example 146] | 2600 nM |  |
| COC1COc2c(S(N)(=O)=NC(=O)Nc3c4c(cc5c3C(C)CC5)CCC4)cnn2C1 (single isomer, unassigned) [Example 147] | > 20000 nM |  |
| COC1COc2c(S(N)(=O)=NC(=O)Nc3c4c(cc5c3C(C)CC5)CCC4)cnn2C1 (single isomer, unassigned) [Example 148] | 710 nM |  |
| COC1COc2c(S(N)(=O)=NC(=O)Nc3c4c(cc5c3C(C)CC5)CCC4)cnn2C1 (single isomer, unassigned) [Example 149] | 650 nM |  |
| COC1COc2c(S(N)(=O)=NC(=O)Nc3c4c(cc5c3C(C)CC5)CCC4)cnn2C1 (single isomer, unassigned) [Example 150] | 24 nM |  |
| COc1cc(-c2ccc(NC(=O)N=S(N)(=O)c3cnn4c3OCC(OC)C4)c3c2CCC3)ccn1 (single isomer, unassigned) [Example 151] | > 20000 nM |  |
| COc1cc(-c2ccc(NC(=O)N=S(N)(=O)c3cnn4c3OCC(OC)C4)c3c2CCC3)ccn1 (single isomer, unassigned) [Example 152] | 4100 nM |  |
| CC1(C)COc2c(S(N)(=O)=NC(=O)Nc3c4c(cc5c3CC(F)C5)CCC4)cnn2C1 (single isomer, unassigned) [Example 153] | 1400 nM |  |
| CC1(C)COc2c(S(N)(=O)=NC(=O)Nc3c4c(cc5c3CC(F)C5)CCC4)cnn2C1 (single isomer, unassigned) [Example 154] | 1800 nM |  |
| CC1(C)COc2c(S(N)(=O)=NC(=O)Nc3c4c(cc5c3CC(F)C5)CCC4)cnn2C1 (single isomer, unassigned) [Example 155] | 8 nM |  |
| CC1(C)COc2c(S(N)(=O)=NC(=O)Nc3c4c(cc5c3CC(F)C5)CCC4)cnn2C1 (single isomer, unassigned) [Example 156] | 13 nM |  |
| COc1cc(-c2ccc3c(c2NC(=O)N=S(N)(=O)c2cnn4c2OCCC4)CCO3)ccn1 (single isomer, unassigned) [Example 157] | 710 nM |  |
| COc1cc(-c2ccc3c(c2NC(=O)N=S(N)(=O)c2cnn4c2OCCC4)CCO3)ccn1 (single isomer, unassigned) [Example 158] | 25 nM |  |
| COC1CN([C@@H]2COc3c([S@@](=O)(=NC(=O)Nc4c5c(c(F)c6c4CCC6)CCC5)NC#N)cnn3C2)C1 (stereo in doubt) [Example 63, (R,6S)—N-cyano-N′-((8-fluoro-1,2,3,5,6,7-hexahydro-s-indacen-4-yl)carbamoyl)-6-(3-methoxyazetidin-1-yl)-6,7-dihydro-5H-pyrazolo[5,1-b][1,3]oxazine-3-sulfonimidamide, ammonia] | 140 nM |  |
| Cn1ccc(S(=O)(=NC(=O)Nc2c3c(cc4c2CCC4)CCC3)NCc2ccccc2)n1 (stereo not shown) [Example 11, N′-benzyl-N-((1,2,3,5,6,7-hexahydro-s-indacen-4-yl)carbamoyl)-1-methyl-1H-pyrazole-3-sulfonimidamide] |  | IC50 (NLRP3 inflammasome [1]; [3]): > 10000 nM |
| CN(C)[C@@H]1COc2c([S@@](=O)(=NC(=O)Nc3c4c(c(F)c5c3CCC5)CCC4)NC#N)cnn2C1 [Example 104, (R,6S)—N-cyano-6-(dimethylamino)-N′-((8-fluoro-1,2,3,5,6,7-hexahydro-s-indacen-4-yl)carbamoyl)-6,7-dihydro-5H-pyrazolo[5,1-b][1,3]oxazine-3-sulfonimidamide] | 320 nM |  |
| Cn1ccc(S(=O)(=NC(=O)Nc2c3c(cc4c2CCC4)CCC3)NCc2ccccc2)n1 (stereo not shown) [drawing 659] |  | IC50 (NLRP3 inflammasome [1]; 10 uM nigericin, read-out: PBMC IL-1 β IC50): > 10000 nM |

From patent US12234245B2, “Sulfonimidamide compounds as inhibitors of interleukin-1 activity” (Genentech, Inc., priority 2018, dated 2025)
